Test results published in patent publication US12187723B2 (BRISTOL-MYERS SQUIBB COMPANY, priority 2019, dated 2025).
Structures can show the parent of a compound that is named as a salt.

How the values were obtained:
[1] = molecular target: T1, human TLR8 (Homo sapiens, UniProt Q9NR97); experiment: TLR8 inhibition reporter assay (HEK-Blue SEAP); assay type: cell-based; conditions: HEK-Blue cells overexpressing human TLR8, R848 15.9 μM, 22 hour incubation
T1 construct: host or cells: HEK-Blue cells
T1 sequence (Q9NR97 27-1041): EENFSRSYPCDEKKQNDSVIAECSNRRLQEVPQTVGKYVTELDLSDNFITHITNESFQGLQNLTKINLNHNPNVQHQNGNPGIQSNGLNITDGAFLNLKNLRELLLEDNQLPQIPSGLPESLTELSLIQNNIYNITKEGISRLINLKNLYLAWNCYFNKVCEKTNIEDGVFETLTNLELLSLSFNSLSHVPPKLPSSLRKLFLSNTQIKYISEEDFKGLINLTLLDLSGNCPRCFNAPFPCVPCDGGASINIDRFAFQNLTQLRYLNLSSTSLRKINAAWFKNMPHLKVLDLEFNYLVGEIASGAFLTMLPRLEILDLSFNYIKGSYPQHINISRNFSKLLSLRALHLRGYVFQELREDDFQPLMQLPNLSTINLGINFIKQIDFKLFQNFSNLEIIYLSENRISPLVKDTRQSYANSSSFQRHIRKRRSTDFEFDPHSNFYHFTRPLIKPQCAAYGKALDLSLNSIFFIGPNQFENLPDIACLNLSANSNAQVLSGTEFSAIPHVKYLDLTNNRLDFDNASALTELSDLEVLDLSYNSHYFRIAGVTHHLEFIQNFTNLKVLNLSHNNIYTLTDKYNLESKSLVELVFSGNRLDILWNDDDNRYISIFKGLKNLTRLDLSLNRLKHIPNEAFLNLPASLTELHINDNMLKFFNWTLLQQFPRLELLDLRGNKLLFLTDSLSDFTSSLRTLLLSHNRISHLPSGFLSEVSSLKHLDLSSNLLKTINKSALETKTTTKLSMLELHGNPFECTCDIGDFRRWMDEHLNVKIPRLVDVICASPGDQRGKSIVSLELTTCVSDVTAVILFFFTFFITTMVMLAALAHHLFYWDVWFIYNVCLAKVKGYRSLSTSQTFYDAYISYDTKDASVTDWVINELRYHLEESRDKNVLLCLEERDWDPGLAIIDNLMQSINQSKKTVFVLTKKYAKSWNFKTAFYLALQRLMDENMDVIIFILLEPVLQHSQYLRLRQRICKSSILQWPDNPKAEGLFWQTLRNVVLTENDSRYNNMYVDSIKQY
Method in brief: (§1)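 Screening used HEK-Blue cells overexpressing one human TLR (7, 8 or 9) and an IFN-β minimal promoter–NF-κB/AP-1 SEAP construct. Stimulation lasted 22 h at 37 °C with receptor-specific agonist: gardiquimod, R848 or ODN2006 at 7.5 μM, 15.9 μM and 5 nM.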

[2] = molecular target: T2, human TLR9 (Homo sapiens, UniProt Q9NR96); experiment: TLR9 inhibition reporter assay (HEK-Blue SEAP); assay type: cell-based; conditions: HEK-Blue cells overexpressing human TLR9, ODN2006 5 nM, 22 hour incubation
T2 construct: host or cells: HEK-Blue cells
T2 sequence (Q9NR96 26-1032): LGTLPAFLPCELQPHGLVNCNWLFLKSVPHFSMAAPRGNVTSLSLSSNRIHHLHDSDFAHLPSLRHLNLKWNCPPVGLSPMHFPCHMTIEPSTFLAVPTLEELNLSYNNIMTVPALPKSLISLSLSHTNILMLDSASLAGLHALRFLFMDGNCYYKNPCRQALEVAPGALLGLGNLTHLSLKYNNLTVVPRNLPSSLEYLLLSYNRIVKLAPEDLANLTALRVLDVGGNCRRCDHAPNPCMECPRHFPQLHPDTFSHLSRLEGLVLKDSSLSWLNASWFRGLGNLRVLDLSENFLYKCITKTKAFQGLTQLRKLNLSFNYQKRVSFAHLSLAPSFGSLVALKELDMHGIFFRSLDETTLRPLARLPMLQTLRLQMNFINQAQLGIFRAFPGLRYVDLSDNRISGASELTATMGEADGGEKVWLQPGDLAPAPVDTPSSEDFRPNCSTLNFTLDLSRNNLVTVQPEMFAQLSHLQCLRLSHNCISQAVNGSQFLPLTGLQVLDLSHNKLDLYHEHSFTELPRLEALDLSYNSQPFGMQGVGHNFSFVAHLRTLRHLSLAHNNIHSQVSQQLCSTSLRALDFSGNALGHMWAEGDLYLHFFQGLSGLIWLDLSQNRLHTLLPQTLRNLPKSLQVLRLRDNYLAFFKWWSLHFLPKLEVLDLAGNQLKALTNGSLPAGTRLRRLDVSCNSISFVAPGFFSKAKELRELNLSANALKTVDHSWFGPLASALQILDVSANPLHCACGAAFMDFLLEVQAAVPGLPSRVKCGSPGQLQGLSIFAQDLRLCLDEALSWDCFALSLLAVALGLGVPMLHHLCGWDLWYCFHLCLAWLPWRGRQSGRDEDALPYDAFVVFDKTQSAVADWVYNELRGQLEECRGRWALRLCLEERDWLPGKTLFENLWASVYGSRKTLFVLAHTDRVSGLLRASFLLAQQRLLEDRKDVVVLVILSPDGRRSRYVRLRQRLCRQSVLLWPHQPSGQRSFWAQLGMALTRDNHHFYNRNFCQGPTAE
Method in brief: as §1

SMILES | IC50 [1] | IC50 [2]
COc1cc(-c2cc3[nH]c(=O)n(C4CCNCC4)c3cc2C)cn2ncnc12 [1 E, 5-(8-methoxy-[1,2,4]triazolo[1,5-a]pyridin-6-yl)-6-methyl-1-(piperidin-4-yl)-1H-benzo[d]imidazol-2(3H)-one, TFA] | 225 nM | 2640 nM
Cc1cc2c(cc1-c1cc(C)c3ncnn3c1)[nH]c(=O)n2C1CCNCC1 [1 EA, 6-methyl-5-(8-methyl-[1,2,4]triazolo[1,5-a]pyridin-6-yl)-1-(piperidin-4-yl)-1,3-dihydro-2H-benzo[d]imidazol-2-one] | 439 nM | 5450 nM
Cc1cc(-c2ccc3c(c2)[nH]c(=O)n3C2CCNCC2)cn2ncnc12 [1 EB, 5-(8-methyl-[1,2,4]triazolo[1,5-a]pyridin-6-yl)-1-(piperidin-4-yl)-1,3-dihydro-2H-benzo[d]imidazol-2-one] | 1030 nM | 347 nM
Cc1cc2c(cc1-c1cc(C)c3ncnn3c1)[nH]c(=O)n2C1CCCNC1 (centres unmarked) [1 EC, 6-methyl-5-(8-methyl-[1,2,4]triazolo[1,5-a]pyridin-6-yl)-1-(piperidin-3-yl)-1,3-dihydro-2H-benzo[d]imidazol-2-one] | 22.5 nM | 381 nM
Cc1cc2c(cc1-c1cc(C)c3ncnn3c1)[nH]c(=O)n2[C@@H]1CCCNC1 [1 ED, (R)-6-methyl-5-(8-methyl-[1,2,4]triazolo[1,5-a]pyridin-6-yl)-1-(piperidin-3-yl)-1,3-dihydro-2H-benzo[d]imidazol-2-one] | 38.1 nM | 524 nM
Cc1cc2c(cc1-c1cc(C)c3ncnn3c1)[nH]c(=O)n2[C@H]1CC[C@@H](N)CC1 [1 EE] | 31.8 nM | 2160 nM
Cc1cc2c(cc1-c1cc(C)c3ncnn3c1)[nH]c(=O)n2[C@H]1CC[C@H](N)CC1 [1 EF, 1-((1r,4r)-4-aminocyclohexyl)-6-methyl-5-(8-methyl-[1,2,4]triazolo[1,5-a]pyridin-6-yl)-1,3-dihydro-2H-benzo[d]imidazol-2-one] | 33.2 nM | 2310 nM
COc1cc(-c2cc3[nH]c(=O)n([C@H]4CC[C@@H](N)CC4)c3cc2C)cn2ncnc12 [1 EG, 1-((1s,4s)-4-aminocyclohexyl)-5-(8-methoxy-[1,2,4]triazolo[1,5-a]pyridin-6-yl)-6-methyl-1,3-dihydro-2H-benzo[d]imidazol-2-one] | 32.6 nM | 3650 nM
COc1cc(-c2cc3[nH]c(=O)n([C@@H]4CCCNC4)c3cc2C)cn2ncnc12 [1 EH, (R)-5-(8-methoxy-[1,2,4]triazolo[1,5-a]pyridin-6-yl)-6-methyl-1-(piperidin-3-yl)-1,3-dihydro-2H-benzo[d]imidazol-2-one] | 49.6 nM | 809 nM
COc1cc(-c2ccc3c(c2)[nH]c(=O)n3C2CCNCC2)cn2ncnc12 [1 EI, 5-(8-methoxy-[1,2,4]triazolo[1,5-a]pyridin-6-yl)-1-(piperidin-4-yl)-1,3-dihydro-2H-benzo[d]imidazol-2-one] | > 3130 nM | 1180 nM
Cc1cc(-c2cc(C)c3ncnn3c2)cc2[nH]c(=O)n(C3CCNCC3)c12 [106 F, 7-methyl-5-(8-methyl-[1,2,4]triazolo[1,5-a]pyridin-6-yl)-1-(piperidin-4-yl)-1,3-dihydro-2H-benzo[d]imidazol-2-one] | 433 nM | 1020 nM
COc1cc(-c2cc3[nH]c(=O)n([C@@H]4CCCNC4)c3cc2C(F)(F)F)cn2ncnc12 [110 F, (R)-5-(8-methoxy-[1,2,4]triazolo[1,5-a]pyridin-6-yl)-1-(piperidin-3-yl)-6-(trifluoromethyl)-1,3-dihydro-2H-benzo[d]imidazol-2-one] | 14.8 nM | 2710 nM

Stronger by IC50 [1], values ahead:

IC50 [1] | IC50 [2] | SMILES
8.4 nM | 16200 nM | COc1cc(-c2cc3[nH]c(=O)n(C4CCC(N5CC(F)(F)C5)CC4)c3cc2C(C)C)cn2ncnc12 (single isomer, unassigned) [Example 297]
7.9 nM | 22200 nM | COc1cc(-c2cc3[nH]c(=O)n(C4CCC(N5CCC(F)(F)C5)CC4)c3cc2C(C)C)cn2ncnc12 (single isomer, unassigned) [Example 295, 1-(4-(3,3-difluoropyrrolidin-1-yl)cyclohexyl)-6-isopropyl-5-(8-methoxy-[1,2,4]triazolo[1,5-a]pyridin-6-yl)-1,3-dihydro-2H-benzo[d]imidazol-2-one]
7.74 nM | 23400 nM | COc1cc(-c2cc3[nH]c(=O)n(C4CCC(N5C[C@@H](F)[C@@H](F)C5)CC4)c3cc2C(C)C)cn2ncnc12 (single isomer, unassigned) [Example 293]
4.44 nM | > 50000 nM | COc1cc(-c2cc3[nH]c(=O)n(C4CCC(N5CCC(S(C)(=O)=O)C5)CC4)c3cc2C(C)C)cn2ncnc12 (single isomer, unassigned) [Example 289, 6-isopropyl-5-(8-methoxy-[1,2,4]triazolo[1,5-a]pyridin-6-yl)-1-(4-(3-(methylsulfonyl)pyrrolidin-1-yl)cyclohexyl)-1,3-dihydro-2H-benzo[d]imidazol-2-one]
3.76 nM | 3790 nM | Cc1c(-c2cc3[nH]c(=O)n(C4CCC(N5CC6(COC6)C5)CC4)c3cc2C(C)C)cn2ncnc2c1C (single isomer, unassigned) [Example 298]
3.4 nM | > 50000 nM | COc1cc(-c2cc3[nH]c(=O)n(C4CCC(N5CC(F)(F)C5)CC4)c3cc2C(C)C)cn2ncnc12 (single isomer, unassigned) [Example 296]
3.14 nM | 35200 nM | COc1cc(-c2cc3[nH]c(=O)n(C4CCC(N5CCC(F)(F)C5)CC4)c3cc2C(C)C)cn2ncnc12 (single isomer, unassigned) [Example 294, 1-(4-(3,3-difluoropyrrolidin-1-yl)cyclohexyl)-6-isopropyl-5-(8-methoxy-[1,2,4]triazolo[1,5-a]pyridin-6-yl)-1,3-dihydro-2H-benzo[d]imidazol-2-one]
1.86 nM | 12300 nM | COC[C@@H]1CCN(C2CCC(n3c(=O)[nH]c4cc(-c5cc(OC)c6ncnn6c5)c(C(C)C)cc43)CC2)C1 (single isomer, unassigned) [Example 291]
0.53 nM | 7100 nM | COC[C@@H]1CCN(C2CCC(n3c(=O)[nH]c4cc(-c5cc(OC)c6ncnn6c5)c(C(C)C)cc43)CC2)C1 (single isomer, unassigned) [Example 290]
0.13 nM | 28900 nM | COc1cc(-c2cc3[nH]c(=O)n(C4CCC(N5C[C@@H](F)[C@@H](F)C5)CC4)c3cc2C(C)C)cn2ncnc12 (single isomer, unassigned) [Example 292]
